Active and inactive are the calls of the source. The calls are words filed in the database; no cut-off is given here.
Tests used:
A549 [1] = assay: Induction of apoptosis in human A549 cells assessed as membrane blebbing after 24 hrs by phase contrast microscopy; assay type: functional, cell-based
A549 [2] = assay: Cell cycle arrest in human A549 cells assessed as accumulation at G0/G1 phase at 75 nM after 24 hrs by propidium iodide staining based flow cytometry (reference value: 58.84%); assay type: functional
A549 [3] = assay: Cell cycle arrest in human A549 cells assessed as accumulation at G2/M phase at 75 nM after 24 hrs by propidium iodide staining based flow cytometry (reference value: 8.36%); assay type: functional
Mus musculus [4] = assay: Antitumor activity in BALB/c nude mouse xenografted with human Bel7402 cells assessed as tumor volume at 30 mg/kg, ip administered once in a week for two weeks starting from 6 days post tumor transplantation measured every 3 days for 21 days (reference value: 511 mm3); settings: in vivo, 504 h
A549 [5] = assay: Induction of apoptosis in human A549 cells assessed as caspase-3 level at 8 to 75 nM by Western blot method; assay type: functional, cell-based
A549 [6] = assay: Cell cycle arrest in human A549 cells assessed as accumulation at S phase at 75 nM after 24 hrs by propidium iodide staining based flow cytometry (reference value: 32.80%); assay type: functional
Mus musculus [7] = assay: Toxicity in Kunming mouse implanted with mouse H22 cells assessed as body weight at 60 mg/kg, ip administered twice (reference value: 31.1 g); assay type: organism-based; settings: in vivo
A549 [8] = assay: Antiproliferative activity against human A549 cells after 96 hrs by MTT assay; assay type: functional, cell-based; settings: A549, 96 h
A549 [9] = assay: Induction of apoptosis in human A549 cells assessed as late apoptotic cells at 25 nM after 24 hrs by Annexin V-FITC/propidium iodide staining based flow cytometry (reference value: 2.47%); assay type: functional
Bel-7402 [10] = assay: Antiproliferative activity against human Bel7402 cells after 96 hrs by MTT assay; assay type: functional, cell-based; settings: Bel-7402, 96 h
Mus musculus [11] = assay: Toxicity in Kunming mouse implanted with mouse H22 cell assessed as survival at 40 mg/kg, ip administered on day 1 and day 5; assay type: organism-based; settings: in vivo
Mus musculus [12] = assay: Toxicity in BALB/c nude mouse xenografted with human Bel7402 cells assessed as body weight at 60 mg/kg, ip aadministered once in a week for two weeks starting from 6 days post tumor transplantation measured every 3 days for 21 days (reference value: 14.5 g); assay type: organism-based; settings: in vivo, 504 h
A549 [13] = assay: Induction of apoptosis in human A549 cells assessed as increase in cleaved caspase-3 level at 8 to 75 nM by Western blot method; assay type: functional, cell-based
H22 [14] = assay: Antitumor activity against mouse H22 cells implanted in Kunming mouse assessed as tumor growth inhibition at 100 mg/kg, ip administered once relative to control; assay type: functional; settings: read-out: TGI
Mus musculus [15] = assay: Toxicity in BALB/c nude mouse xenografted with human Bel7402 cells assessed as body weight at 30 mg/kg, ip administered once in a week for two weeks starting from 6 days post tumor transplantation measured every 3 days for 21 days (reference value: 14.5 g); assay type: organism-based; settings: in vivo, 504 h
Mus musculus [16] = assay: Toxicity in Kunming mouse implanted with mouse H22 cells assessed as survival at 60 mg/kg, ip administered twice; assay type: organism-based; settings: in vivo
A549 [17] = assay: Induction of apoptosis in human A549 cells assessed as necrotic cells at 75 nM after 24 hrs by Annexin V-FITC/propidium iodide staining based flow cytometry (reference value: 7.62%); assay type: functional
Mus musculus [18] = assay: Toxicity in Kunming mouse implanted with mouse H22 cells assessed as body weight at 40 mg/kg, ip administered on day 1 and day 5 (reference value: 32.5 g); assay type: organism-based; settings: in vivo
Mus musculus [19] = assay: Toxicity in BALB/c nude mouse xenografted with human BGC823 cells assessed as body weight at 30 mg/kg, ip administered once in a week for two weeks starting from 6 days post tumor transplantation and measured every 3 days during compound dosing for 15 days (reference value: 23.6 g); assay type: organism-based; settings: in vivo, 360 h
A549 [20] = assay: Cell cycle arrest in human A549 cells assessed as accumulation at G0/G1 phase at 8 nM after 24 hrs by propidium iodide staining based flow cytometry (reference value: 58.84%); assay type: functional
A549 [21] = assay: Cell cycle arrest in human A549 cells assessed as accumulation at S phase at 25 nM after 24 hrs by propidium iodide staining based flow cytometry (reference value: 32.80%); assay type: functional
BGC-823 = assay: Antitumor activity against human BGC823 cells xenografted in BALB/c nude mouse assessed as tumor growth inhibition at 60 mg/kg, ip administered once in a week for two weeks starting from 6 days post tumor transplantation measured 27 to 30 days post tumor transplantation relative to control; assay type: functional; settings: BGC-823, ip, read-out: TGI
A549 [22] = assay: Induction of apoptosis in human A549 cells assessed as early apoptotic cells at 75 nM after 24 hrs by Annexin V-FITC/propidium iodide staining based flow cytometry (reference value: 0.50%); assay type: functional
A549 [23] = assay: Cell cycle arrest in human A549 cells assessed as accumulation at G2/M phase at 25 nM after 24 hrs by propidium iodide staining based flow cytometry (reference value: 8.36%); assay type: functional
H22 [24] = assay: Antitumor activity against mouse H22 cells implanted in Kunming mouse assessed as tumor growth inhibition at 60 mg/kg, ip administered twice relative to control; assay type: functional; settings: read-out: TGI
Bel-7402 [25] = assay: Antitumor activity against human Bel7402 cells xenografted in BALB/c nude mouse assessed as tumor volume at 30 mg/kg, ip administered once in a week for two weeks starting from 6 days post tumor transplantation measured 27 to 30 days post tumor transplantation relative to control; assay type: functional
A549 [26] = assay: Induction of apoptosis in human A549 cells assessed as late apoptotic cells at 8 nM after 24 hrs by Annexin V-FITC/propidium iodide staining based flow cytometry (reference value: 2.47%); assay type: functional
A549 [27] = assay: Induction of apoptosis in human A549 cells assessed as viable cells at 75 nM after 24 hrs by Annexin V-FITC/propidium iodide staining based flow cytometry (reference value: 89.41%); assay type: functional; settings: A549, 24 h, read-out: Activity
Mus musculus [28] = assay: Antitumor activity in BALB/c nude mouse xenografted with human Bel7402 cells assessed as tumor volume at 60 mg/kg, ip administered once in a week for two weeks starting from 6 days post tumor transplantation measured every 3 days for 21 days (reference value: […]); settings: in vivo, 504 h
Mus musculus [29] = assay: Toxicity in BALB/c nude mouse xenografted with human Bel7402 cells assessed as survival at 60 mg/kg, ip administered once in a week for two weeks starting from 6 days post tumor transplantation measured every 3 days for 21 days; assay type: organism-based; settings: in vivo, 504 h
A549 [30] = assay: Cell cycle arrest in human A549 cells assessed as accumulation at G0/G1 phase at 25 nM after 24 hrs by propidium iodide staining based flow cytometry (reference value: 58.84%); assay type: functional
A549 [31] = assay: Cell cycle arrest in human A549 cells assessed as accumulation at G2/M phase at 8 nM after 24 hrs by propidium iodide staining based flow cytometry (reference value: 8.36%); assay type: functional
Mus musculus [32] = assay: Toxicity in BALB/c nude mouse xenografted with human BGC823 cells assessed as mouse survival at 60 mg/kg, ip administered once in a week for two weeks starting from 6 days post tumor transplantation; assay type: organism-based; settings: in vivo, 144 h

## CCc1c2c(nc3ccccc13)-c1cc3c(c(=O)n1C2)COC(=O)[C@@]3(CC)OC(=O)Cn1cc(F)c(=O)[nH]c1=O
A549 [1]
  Activity: Dose-dependent effect
A549 [2]
  Activity: 2.17%
A549 [3]
  Activity: 67.07%
Mus musculus [4]
  tumor volume: 231 mm³
A549 [5]
  Activity: Active
A549 [6]
  Activity: 30.76%
Mus musculus [7]
  Activity: 27.2 g
A549 [8]
  IC50: 0.027 µM
A549 [9]
  Activity: 26.6%
Bel-7402 [10]
  IC50: 0.014 µM
Mus musculus [11]
  Activity: Non-Toxic
Mus musculus [12]
  Activity: Non-Toxic
A549 [13]
  Activity: Active
H22 [14]
  inhibition in vivo at 100 mg/kg: 39.1%
Mus musculus [15]
  Activity: Non-Toxic
Mus musculus [16]
  Activity: Non-Toxic
A549 [17]
  Activity: 10.77%
Mus musculus [18]
  Activity: 27.3 g
Mus musculus [19]
  Activity: 19.1 g
A549 [20]
  Activity: 32.28%
A549 [21]
  Activity: 21.17%
BGC-823
  inhibition in vivo at 60 mg/kg: 96%
A549 [22]
  Activity: 23.7%
A549 [23]
  Activity: 71.74%
H22 [24]
  inhibition in vivo at 60 mg/kg: 64.5%
Bel-7402 [25]
  T/C: 41.17%
A549 [26]
  Activity: 13.06%
A549 [27]
  viability at 0.075 µM: 30.6%
Mus musculus [28]
  tumor volume: 127 mm³
Mus musculus [29]
  Activity: Non-Toxic
A549 [30]
  Activity: 7.09%
A549 [31]
  Activity: 31.21%
Mus musculus [32]
  Activity: Non-Toxic

— ChEMBL document CHEMBL4000174, “Synthesis and antitumor activity of novel substituted uracil-1'(N)-acetic acid ester derivatives of 20(S)-camptothecins” (Eur J Med Chem, 2017)
